Data as given in patent US8080529B2, “Macrolides with anti-inflammatory activity” (Glaxo Group Limited, priority 2005, dated 2011).
Where two headings read alike, the source gives them in different places.

Tests used:
[1] = test system: Hep G2; experiment: Cytotoxicity assay (MTT), Hep G2 cell line; type: cell-based; conditions: 24 h
Method: (§1) To determine whether the anti-inflammatory activity of the test compounds was due to observed inhibition of cytokine production and inhibition of proliferation in vitro, and was not a consequence of cellular cytotoxicity, measurement of succinate dehydrogenase activity in living cells was performed. Cells were cultured for 24 h in RPM medium as described above at 37° C. the presence of the test compounds at concentrations of 50 μM and 12.5 μM. MTT [3-(4,5-dimethylthiazole-2-yl)-2,5-diphenyl tetrazolium bromide] (Promega, USA), a detection reagent, was then added and the cultures were incubated for 0.5-2 h. The amount of MTT-Formazan produced was determined using a spectrophotometer at 490 nm (Mosmann, J. Immunol. Methods, 1983, 65: 55-63).
(§2) The percentage of inhibition of cell growth was calculated using the following formula: % inhibition of cell growth=[…].

[2] = test system: A549; experiment: Cytotoxicity assay (MTT), A549 cell line; type: cell-based; conditions: 24 h
Method: as §1, §2

[3] = test system: TNF-α; experiment: Lipopolysaccharide induced TNF-α production in Balb/cJ mice; type: in vivo; conditions: Mus musculus, ip, 1.5 h, read-out: % inhibition of TNF-α production (plasma)
Method: Male Balb/cJ mice (Iffa Credo, France) weighing 25-33 g were randomly grouped (n=7 in test group, 7 in positive control group, 4 in negative control group). Test compounds, as well as vehicle [0.125% carboxymethyl-cellulose (Sigma, USA)], were administered to the mice intraperitoneally. Test compounds were administered at a dose of 10 mg/kg of body weight, in a volume of 10 mL/kg of body weight. Thirty minutes later, a sterile solution of lipopolysaccharide (LPS) (Sigma, USA) in saline was intraperitoneally administered at a concentration and volume of 25 μg/0.2 mL/mouse to each animal, except those in negative control. Ninety minutes following administration, all animals were sacrificed by puncturing a. carotis communis. The plasma concentration of TNF-α was determined by sandwich ELISA, using capture and detection antibodies (R&D, USA) according to manufacturer's recommendations. Results are presented in the following table as percent of inhibition of TNF-α production in comparison to the positive control (stimulated, but untreated animals).

[4] = test system: human peripheral blood mononuclear cells (PBMC); experiment: Effects on human T-cell proliferation in vitro (3H-thymidine incorporation); type: cell-based; conditions: Homo sapiens, PBMC, read-out: Percentage of inhibition of proliferation of stimulated PBMC
Method: The influence of the various test compounds at two different concentrations (50 μM and 10 μM) on cell proliferation of human peripheral blood mononuclear cells (PBMC) was assessed. […] The cells were pulsed with 1 μCi of ^3H-thymidine (Amersham, USA) per well during the last 18 h of the culture, and were harvested on the 96-well filter (Packard Bioscience, USA) using a multiple cell harvester (Packard, USA). The incorporation of ^3H-thymidine in activated cells were measured using TopCount NXT (Packard, USA). […] The positive control refers to LPS-, PMA- or zymosan-stimulated samples that were not treated with test compounds.

[5] = test system: TNF-α; experiment: Inhibition of TNF-α production by stimulated human peripheral blood leukocytes in vitro; type: cell-based; conditions: Homo sapiens, Leukocyte, read-out: Percentage of inhibition of TNF-α production
In short: (§3)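 Dextran-sedimented human PBL (3–5×10^6/well) preincubated 2 h at 37 °C with compounds at 50 μM or 10 μM, then stimulated overnight with LPS 2 μg/mL, PMA 1 μg/mL or zymosan 120 μg/mL. Supernatant cytokines quantified by sandwich ELISA; % inhibition versus stimulated untreated controls.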

[6] = test system: IL-1α; experiment: Inhibition of IL-1 production by stimulated human peripheral blood leukocytes in vitro; type: cell-based; conditions: Homo sapiens, Leukocyte, read-out: Percentage of inhibition of IL-1α production
[7] = test system: IL-6; experiment: Inhibition of IL-6 production by stimulated human peripheral blood leukocytes in vitro; type: cell-based; conditions: Homo sapiens, Leukocyte, read-out: Percentage of inhibition of IL-6 production
In short: as §3

[8] = test system: IL-8; experiment: Inhibition of IL-8 production by stimulated human peripheral blood leukocytes in vitro; type: cell-based; conditions: Homo sapiens, Leukocyte, read-out: Percentage of inhibition of IL-8 production
In short: as §3

CC[C@H]1OC(=O)[C@H](C)[C@@H](O[C@H]2C[C@@](C)(OC)[C@@H](OCCCN(CC)CC)[C@H](C)O2)[C@H](C)[C@@H](O[C@@H]2O[C@H](C)C[C@H](N(C)C)[C@H]2O)[C@](C)(OC)C[C@@H](C)C(=O)N[C@H](C)[C@@H](O)[C@]1(C)O [Example 73, 4″-O-(3-Diethylaminopropyl)-6-O-methyl-9a-aza-9a-homoerythromycin A]
Percentage of inhibition of cell growth ([1]; 12.5 μM): 0%
Percentage of inhibition of cell growth ([1]; 50 μM): 0%
Percentage of inhibition of cell growth ([2]; 12.5 μM): 0%
Percentage of inhibition of cell growth ([2]; 50 μM): 0%
inhibition in vivo at 10 mg/kg [3]: 90%

CC[C@H]1OC(=O)[C@H](C)[C@@H](O[C@H]2C[C@@](C)(OC)[C@@H](OC(=O)CCN(CC)CC)[C@H](C)O2)[C@H](C)[C@@H](O[C@@H]2O[C@H](C)C[C@H](N(C)C)[C@H]2O)[C@](C)(O)C[C@@H](C)NC(=O)[C@H](C)[C@@H](O)[C@]1(C)O [Example 2, 4″-O-(3-Diethylamino-propionyl)-8a-aza-8a-homoerythromycin A]
inhibition at 10 µM ([4]; PHA): 35%
inhibition at 50 µM ([4]; PHA): 41%
inhibition at 10 µM ([4]; PMA + iono.): 1%
inhibition at 50 µM ([4]; PMA + iono.): 31%
Percentage of inhibition of cell growth ([1]; 12.5 μM): 0%
Percentage of inhibition of cell growth ([1]; 50 μM): 1%
Percentage of inhibition of cell growth ([2]; 12.5 μM): 0%
Percentage of inhibition of cell growth ([2]; 50 μM): 3%
inhibition in vivo at 10 mg/kg ([3]; 10 mg/kg intraperitoneally, 30 min before LPS, 90 min after LPS): 59%

CC[C@H]1OC(=O)[C@H](C)[C@@H](O[C@H]2C[C@@](C)(OC)[C@@H](OC(=O)CCN(CC)CC)[C@H](C)O2)[C@H](C)[C@@H](O[C@@H]2O[C@H](C)C[C@H](N(C)C)[C@H]2O)[C@](C)(OC)C[C@@H](C)C(=O)[C@H](C)[C@H]2N(C)C(=O)O[C@]12C [Example 10, 11,12-(N-Methyl-carbamate)-11,12-dideoxy-4-O-(3-diethylaminopropionyl)-6-O-methyl-erythromycin A]
inhibition at 10 µM ([5]; LPS-stimulated PBL): 49%
inhibition at 10 µM ([5]; PMA-stimulated PBL): 41%
inhibition at 10 µM ([5]; zymosan-stimulated PBL): 14%
inhibition at 50 µM ([5]; LPS-stimulated PBL): 86%
inhibition at 50 µM ([5]; PMA-stimulated PBL): 62%
inhibition at 50 µM ([5]; zymosan-stimulated PBL): 72%
inhibition at 10 µM ([6]; LPS-stimulated PBL): 44%
inhibition at 10 µM ([6]; PMA-stimulated PBL): 30%
inhibition at 10 µM ([6]; zymosan-stimulated PBL): 48%
inhibition at 50 µM ([6]; LPS-stimulated PBL): 41%
inhibition at 50 µM ([6]; PMA-stimulated PBL): 0%
inhibition at 50 µM ([6]; zymosan-stimulated PBL): 49%
inhibition at 10 µM ([7]; LPS-stimulated PBL): 14%
inhibition at 10 µM ([7]; PMA-stimulated PBL): 12%
inhibition at 10 µM ([7]; zymosan-stimulated PBL): 19%
inhibition at 50 µM ([7]; LPS-stimulated PBL): 71%
inhibition at 50 µM ([7]; PMA-stimulated PBL): 18%
inhibition at 50 µM ([7]; zymosan-stimulated PBL): 39%
inhibition at 10 µM ([8]; LPS-stimulated PBL): 27%
inhibition at 10 µM ([8]; PMA-stimulated PBL): 0%
inhibition at 10 µM ([8]; zymosan-stimulated PBL): 28%
inhibition at 50 µM ([8]; LPS-stimulated PBL): 52%
inhibition at 50 µM ([8]; PMA-stimulated PBL): 42%
inhibition at 50 µM ([8]; zymosan-stimulated PBL): 36%
inhibition at 10 µM ([4]; PHA): 71%
inhibition at 50 µM ([4]; PHA): 98%
inhibition at 10 µM ([4]; PMA + iono.): 3%
inhibition at 50 µM ([4]; PMA + iono.): 100%
Percentage of inhibition of cell growth ([1]; 12.5 μM): 0%
Percentage of inhibition of cell growth ([1]; 50 μM): 5%
Percentage of inhibition of cell growth ([2]; 12.5 μM): 12%
Percentage of inhibition of cell growth ([2]; 50 μM): 6%

CC[C@H]1OC(=O)[C@H](C)[C@@H](O[C@H]2C[C@@](C)(OC)[C@@H](OC(=O)CCN3CCN(CCCN4CCCCC4)CC3)[C@H](C)O2)[C@H](C)[C@@H](O[C@@H]2O[C@H](C)C[C@H](N(C)C)[C@H]2O)[C@](C)(OC)C[C@@H](C)C(=O)N[C@H](C)[C@@H](O)[C@]1(C)O [Example 22]
inhibition at 10 µM ([5]; LPS-stimulated PBL): 0%
inhibition at 10 µM ([5]; PMA-stimulated PBL): 0%
inhibition at 10 µM ([5]; zymosan-stimulated PBL): 0%
inhibition at 50 µM ([5]; LPS-stimulated PBL): 23%
inhibition at 50 µM ([5]; PMA-stimulated PBL): 55%
inhibition at 50 µM ([5]; zymosan-stimulated PBL): 35%
inhibition at 10 µM ([6]; LPS-stimulated PBL): 5%
inhibition at 10 µM ([6]; PMA-stimulated PBL): 14%
inhibition at 10 µM ([6]; zymosan-stimulated PBL): 57%
inhibition at 50 µM ([6]; LPS-stimulated PBL): 46%
inhibition at 50 µM ([6]; PMA-stimulated PBL): 56%
inhibition at 50 µM ([6]; zymosan-stimulated PBL): 76%
inhibition at 10 µM ([7]; LPS-stimulated PBL): 3%
inhibition at 10 µM ([7]; PMA-stimulated PBL): 16%
inhibition at 10 µM ([7]; zymosan-stimulated PBL): 28%
inhibition at 50 µM ([7]; LPS-stimulated PBL): 28%
inhibition at 50 µM ([7]; PMA-stimulated PBL): 60%
inhibition at 50 µM ([7]; zymosan-stimulated PBL): 51%
inhibition at 10 µM ([8]; LPS-stimulated PBL): 0%
inhibition at 10 µM ([8]; PMA-stimulated PBL): 0%
inhibition at 10 µM ([8]; zymosan-stimulated PBL): 10%
inhibition at 50 µM ([8]; LPS-stimulated PBL): 5%
inhibition at 50 µM ([8]; PMA-stimulated PBL): 15%
inhibition at 50 µM ([8]; zymosan-stimulated PBL): 30%
Percentage of inhibition of cell growth ([1]; 12.5 μM): 3%
Percentage of inhibition of cell growth ([1]; 50 μM): 1%
Percentage of inhibition of cell growth ([2]; 12.5 μM): 5%
Percentage of inhibition of cell growth ([2]; 50 μM): 0%

CC[C@H]1OC(=O)[C@H](C)[C@@H](O[C@H]2C[C@@](C)(OC)[C@@H](OC(=O)CCNC(C)C)[C@H](C)O2)[C@H](C)[C@@H](O[C@@H]2O[C@H](C)C[C@H](N(C)C)[C@H]2O)[C@](C)(OC)C[C@@H](C)C(=O)N[C@H](C)[C@@H](O)[C@]1(C)O [Example 23]
inhibition at 10 µM ([5]; LPS-stimulated PBL): 0%
inhibition at 10 µM ([5]; PMA-stimulated PBL): 5%
inhibition at 10 µM ([5]; zymosan-stimulated PBL): 0%
inhibition at 50 µM ([5]; LPS-stimulated PBL): 19%
inhibition at 50 µM ([5]; PMA-stimulated PBL): 54%
inhibition at 50 µM ([5]; zymosan-stimulated PBL): 37%
inhibition at 10 µM ([6]; LPS-stimulated PBL): 2%
inhibition at 10 µM ([6]; PMA-stimulated PBL): 12%
inhibition at 10 µM ([6]; zymosan-stimulated PBL): 67%
inhibition at 50 µM ([6]; LPS-stimulated PBL): 39%
inhibition at 50 µM ([6]; PMA-stimulated PBL): 69%
inhibition at 50 µM ([6]; zymosan-stimulated PBL): 75%
inhibition at 10 µM ([7]; LPS-stimulated PBL): 0%
inhibition at 10 µM ([7]; PMA-stimulated PBL): 20%
inhibition at 10 µM ([7]; zymosan-stimulated PBL): 35%
inhibition at 50 µM ([7]; LPS-stimulated PBL): 14%
inhibition at 50 µM ([7]; PMA-stimulated PBL): 59%
inhibition at 50 µM ([7]; zymosan-stimulated PBL): 45%
inhibition at 10 µM ([8]; LPS-stimulated PBL): 0%
inhibition at 10 µM ([8]; PMA-stimulated PBL): 0%
inhibition at 10 µM ([8]; zymosan-stimulated PBL): 22%
inhibition at 50 µM ([8]; LPS-stimulated PBL): 10%
inhibition at 50 µM ([8]; PMA-stimulated PBL): 15%
inhibition at 50 µM ([8]; zymosan-stimulated PBL): 43%
Percentage of inhibition of cell growth ([1]; 12.5 μM): 6%
Percentage of inhibition of cell growth ([1]; 50 μM): 5%
Percentage of inhibition of cell growth ([2]; 12.5 μM): 0%
Percentage of inhibition of cell growth ([2]; 50 μM): 0%
